Data on five compounds can be found in PMC8896928, “Preparation, Characterization, and Preliminary Imaging Study of [^188Re]Re-Ibandronate as a Novel Theranostic Radiopharmaceutical for Bone Metastasis” (Contrast Media & Molecular Imaging, 2022).

Like-named read-outs stand apart in the source and are kept apart here.

For data set [1] the following is noted: Swiss mice, cited from earlier work.
In a further data set the test system is patients. Particulars: cited from earlier work; for Nephrotoxicity: patients, renal safety.
The nature of data set [2]: Biodistribution in normal mice. Type of data set: in vivo, Kunming mice. The protocol:
Twenty Kunming mice (originated from Swiss albino mice and introduced into Kunming, China.) were randomly divided into five groups (equal number of males and females). Each group was injected with 3.7 MBq [^188Re]Re-IBA. […] The blood and important tissue and organ samples were collected to measure the radioactivity count by γ counter. Following the time attenuation correction, the percentage injection dose rate per gram of tissue (%ID/g) was calculated at each time point. The result is expressed as mean ± standard deviation ( χ¯ ± s). The in vivo distribution of [^188Re]ReO4^− was studied using the aforementioned method.

The conditions of data set [3]: Kunming mice, 24 h, cited from earlier work.
The conditions of data set [4]: 0.9% NaCl, 24 h; cited from earlier work.
Where [5] appears, read: patients with bone tumors, P < 0.05.

As to [^188Re]Re-pamidronate [[^188Re]Re-PMA], in data set [1] (1 h), the “Bone uptake (lowest)” value is given as 0.40 ± 0.05 %ID/g. Besides, in data set [1] (4 h), the “Bone uptake (highest)” value was 0.81 ± 0.25 %ID/g.
In the case of `CCCCCN(C)CCC(O)(P(=O)(O)O)P(=O)(O)O` [ibandronic acid, Ibandronic acid], the “Renal function during follow-up” value in the data set on patients (44 patients, average follow-up of 18.5 months) is “no impairment of renal function”. Besides, in the data set on patients (setting [5]), the “Pain relief rate and improvement in the quality of life vs zoledronic acid group” value was “higher”; the “Rate of adverse reactions vs zoledronic acid group” value is reported as “lower”. Moreover, the Nephrotoxicity entry in the data set with patients was “extremely low and equivalent to that of the placebo”.
Consider `[O]=[188Re](=[O])(=[O])[O-]` [[^188Re]ReO4^−, reference compound], for which, in data set [2] (1 h), the “%ID/g Blood” value is reported as 4.648 ± 1.631 %ID/g, the “%ID/g Brain” value amounted to 0.207 ± 0.044 %ID/g, the “%ID/g Femur” value stood at 1.670 ± 0.345 %ID/g and the “%ID/g Gonad” value is on record as 1.096 ± 0.007 %ID/g. Besides, in data set [2] (1 h), the “%ID/g Heart” value is 1.422 ± 0.339 %ID/g, the “%ID/g Kidney” value stood at 2.923 ± 0.658 %ID/g, the “%ID/g Liver” value is on record as 2.480 ± 0.556 %ID/g and the “%ID/g Lung” value stood at 4.458 ± 1.379 %ID/g. In addition, in data set [2] (1 h), the “%ID/g Muscle” value was determined as 0.775 ± 0.074 %ID/g, the “%ID/g Small intestine” value came to 1.671 ± 0.448 %ID/g, the “%ID/g Spleen” value amounted to 2.341 ± 0.973 %ID/g and the “%ID/g Stomach” value was 22.747 ± 5.67 %ID/g. In data set [2] (1 h), the “%ID/g Thyroid gland” value is 20.247 ± 2.489 %ID/g, the Femur/heart radioactivity ratio is recorded as 1.195, the Femur/liver radioactivity ratio came to 0.685 and the Femur/muscle radioactivity ratio is recorded as 2.193. Further, in data set [2] (3 h), the “%ID/g Blood” value stood at 1.578 ± 0.419 %ID/g, the “%ID/g Brain” value is 0.070 ± 0.024 %ID/g, the “%ID/g Femur” value was determined as 0.431 ± 0.038 %ID/g and the “%ID/g Gonad” value was 0.404 ± 0.130 %ID/g. Further, in data set [2] (3 h), the “%ID/g Heart” value worked out at 0.401 ± 0.050 %ID/g, the “%ID/g Kidney” value amounted to 0.683 ± 0.118 %ID/g, the “%ID/g Liver” value came to 0.530 ± 0.038 %ID/g and the “%ID/g Lung” value amounted to 1.026 ± 0.312 %ID/g. Also, in data set [2] (3 h), the “%ID/g Muscle” value was 0.182 ± 0.023 %ID/g, the “%ID/g Small intestine” value was 0.558 ± 0.207 %ID/g, the “%ID/g Spleen” value was 0.490 ± 0.090 %ID/g and the “%ID/g Stomach” value came to 8.578 ± 3.928 %ID/g. Further, in data set [2] (3 h), the “%ID/g Thyroid gland” value was 10.167 ± 1.618 %ID/g, the Femur/heart radioactivity ratio was 1.075, the Femur/liver radioactivity ratio is reported as 0.813 and the Femur/muscle radioactivity ratio worked out at 2.372. In data set [2] (6 h), the “%ID/g Blood” value worked out at 0.533 ± 0.254 %ID/g, the “%ID/g Brain” value is given as 0.044 ± 0.019 %ID/g, the “%ID/g Femur” value was determined as 0.213 ± 0.102 %ID/g and the “%ID/g Gonad” value came out at 0.207 ± 0.065 %ID/g. For the same compound, in data set [2] (6 h), the “%ID/g Heart” value is 0.176 ± 0.074 %ID/g, the “%ID/g Kidney” value worked out at 0.338 ± 0.191 %ID/g, the “%ID/g Liver” value was found to be 0.258 ± 0.086 %ID/g and the “%ID/g Lung” value is recorded as 0.487 ± 0.132 %ID/g. Besides, in data set [2] (6 h), the “%ID/g Muscle” value is 0.109 ± 0.065 %ID/g, the “%ID/g Small intestine” value is listed as 0.263 ± 0.050 %ID/g, the “%ID/g Spleen” value was 0.270 ± 0.098 %ID/g and the “%ID/g Stomach” value worked out at 2.828 ± 1.287 %ID/g. Also, in data set [2] (6 h), the “%ID/g Thyroid gland” value is 4.299 ± 1.015 %ID/g, the Femur/heart radioactivity ratio was 1.205, the Femur/liver radioactivity ratio came to 0.823 and the Femur/muscle radioactivity ratio is 1.950. Further, in data set [2] (24 h), the “%ID/g Blood” value was 0.023 ± 0.009 %ID/g, the “%ID/g Brain” value is reported as 0.017 ± 0.004 %ID/g, the “%ID/g Femur” value came to 0.031 ± 0.003 %ID/g and the “%ID/g Gonad” value was found to be 0.021 ± 0.009 %ID/g. For the same compound, in data set [2] (24 h), the “%ID/g Heart” value is listed as 0.017 ± 0.005 %ID/g, the “%ID/g Kidney” value is reported as 0.017 ± 0.003 %ID/g, the “%ID/g Liver” value is 0.023 ± 0.010 %ID/g and the “%ID/g Lung” value came to 0.054 ± 0.017 %ID/g. In data set [2] (24 h), the “%ID/g Muscle” value is 0.021 ± 0.008 %ID/g, the “%ID/g Small intestine” value is given as 0.023 ± 0.004 %ID/g, the “%ID/g Spleen” value amounted to 0.028 ± 0.007 %ID/g and the “%ID/g Stomach” value is 0.053 ± 0.032 %ID/g. Moreover, in data set [2] (24 h), the “%ID/g Thyroid gland” value is reported as 0.051 ± 0.026 %ID/g, the Femur/heart radioactivity ratio is recorded as 1.853, the Femur/liver radioactivity ratio is 1.325 and the Femur/muscle radioactivity ratio is recorded as 1.498. In data set [2] (48 h), the “%ID/g Blood” value stood at 0.007 ± 0.002 %ID/g, the “%ID/g Brain” value was found to be 0.013 ± 0.006 %ID/g, the “%ID/g Femur” value turned out to be 0.011 ± 0.005 %ID/g and the “%ID/g Gonad” value is reported as 0.007 ± 0.001 %ID/g. Besides, in data set [2] (48 h), the “%ID/g Heart” value is listed as 0.011 ± 0.004 %ID/g, the “%ID/g Kidney” value is given as 0.017 ± 0.007 %ID/g, the “%ID/g Liver” value was 0.018 ± 0.010 %ID/g and the “%ID/g Lung” value was determined as 0.036 ± 0.008 %ID/g. In data set [2] (48 h), the “%ID/g Muscle” value came out at 0.020 ± 0.005 %ID/g, the “%ID/g Small intestine” value came to 0.014 ± 0.005 %ID/g, the “%ID/g Spleen” value was 0.022 ± 0.006 %ID/g and the “%ID/g Stomach” value worked out at 0.029 ± 0.012 %ID/g. Moreover, in data set [2] (48 h), the “%ID/g Thyroid gland” value is 0.025 ± 0.009 %ID/g, the Femur/heart radioactivity ratio is recorded as 1.060, the Femur/liver radioactivity ratio amounted to 0.638 and the Femur/muscle radioactivity ratio stood at 0.585.
On to `O=P(O)(O)C(O)(Cn1ccnc1)P(=O)(O)O` [zoledronic acid], for which the Nephrotoxicity result with patients was “possible occurrence of nephrotoxicity”.
Turning to “[^188Re]Re-bisphosphonate hydroxyethylidene diphosphonate [[^188Re]Re-HEDP]”, the Bone uptake in data set [3] (ref 37) was 22.36 ± 4.11 %ID/g; in data set [3] (ref 38) it was 11.08 ± 4.25 %ID/g. Moreover, the “Stability (RCP)” value in data set [4] is reported as 91.2%. Further, the “Bone uptake (maximum)” value in data set [1] (4 h) is listed as 1.0 ± 0.1 %ID/g.
